{
  "source": "patent US20220193181A1",
  "about": "(priority 2020, published 2022)",
  "key": {"[1]": {"test_system": "platelet aggregation", "details": "cited from earlier work"}, "[2]": {"target": "T1, clotting factor X111 (Homo sapiens, UniProt P00488)", "T1 sequence (P00488 1-732)": "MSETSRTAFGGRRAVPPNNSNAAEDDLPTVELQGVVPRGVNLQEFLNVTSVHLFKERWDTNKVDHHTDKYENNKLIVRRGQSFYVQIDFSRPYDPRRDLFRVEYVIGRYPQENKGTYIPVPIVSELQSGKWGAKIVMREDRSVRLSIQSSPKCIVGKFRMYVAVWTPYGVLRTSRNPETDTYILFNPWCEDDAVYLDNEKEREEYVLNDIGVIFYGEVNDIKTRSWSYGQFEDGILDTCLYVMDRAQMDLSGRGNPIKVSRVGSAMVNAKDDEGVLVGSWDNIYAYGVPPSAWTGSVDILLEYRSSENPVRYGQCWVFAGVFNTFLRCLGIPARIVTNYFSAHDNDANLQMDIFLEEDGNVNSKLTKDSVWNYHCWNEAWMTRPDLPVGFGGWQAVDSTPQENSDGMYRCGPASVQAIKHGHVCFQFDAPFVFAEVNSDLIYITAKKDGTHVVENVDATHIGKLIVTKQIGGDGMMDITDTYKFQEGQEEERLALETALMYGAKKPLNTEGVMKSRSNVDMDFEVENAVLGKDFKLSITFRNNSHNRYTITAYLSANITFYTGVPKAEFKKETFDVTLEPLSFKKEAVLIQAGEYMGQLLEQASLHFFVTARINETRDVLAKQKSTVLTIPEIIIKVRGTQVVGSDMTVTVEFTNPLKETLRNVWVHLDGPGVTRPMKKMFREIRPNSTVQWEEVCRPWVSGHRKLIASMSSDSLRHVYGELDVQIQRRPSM", "details": "cited from earlier work"}, "[3]": {"test_system": "vascular inflammation", "details": "previously reported by the inventors; cited from earlier work"}, "[4]": {"test_system": "Spike S1 treated mice"}, "[5]": {"target": "GSNO reductase (Homo sapiens, UniProt P11766)", "sequence (P11766 whole entry)": "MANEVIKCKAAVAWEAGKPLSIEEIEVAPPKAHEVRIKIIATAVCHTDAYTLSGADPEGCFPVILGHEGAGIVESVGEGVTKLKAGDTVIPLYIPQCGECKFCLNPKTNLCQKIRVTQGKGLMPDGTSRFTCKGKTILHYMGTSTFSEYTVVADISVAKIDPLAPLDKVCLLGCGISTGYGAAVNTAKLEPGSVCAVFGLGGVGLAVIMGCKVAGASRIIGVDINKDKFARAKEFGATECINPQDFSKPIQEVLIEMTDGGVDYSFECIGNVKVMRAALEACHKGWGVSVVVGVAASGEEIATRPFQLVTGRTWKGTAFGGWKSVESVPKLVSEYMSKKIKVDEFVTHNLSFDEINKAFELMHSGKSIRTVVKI", "details": "cited from earlier work"}, "[6]": {"test_system": "EAE mice", "assay": "Adoptive transfer of B cells from N6022-treated mice to EAE mice"}, "[7]": {"test_system": "SARS-CoV-2 patients", "details": "cited from earlier work"}, "[8]": {"test_system": "SARS-CoV-1", "details": "Vero E6 cells; cited from earlier work"}, "[9]": {"details": "B cells from N6022-treated EAE mice"}, "[10]": {"details": "B cells from N6022-treated non-EAE mice"}},
  "data": [
    {"molecule": "N[C@@H](CCC(=O)N[C@@H](CSN=O)C(=O)NCC(=O)O)C(=O)O", "note": "[GSNO, S-nitrosoglutathione]", "values": [
      {"measurement": "platelet aggregation", "setting": "[1]", "value": "inhibit"},
      {"measurement": "clot formation", "setting": "[2]", "value": "inhibited"},
      {"measurement": "clotting factor X111 (transglutaminase) activity", "setting": "[2]", "value": "inhibited"},
      {"measurement": "vascular inflammation", "setting": "[3]", "value": "inhibit"},
      {"measurement": "vascular integrity", "setting": "[3]", "value": "protect"},
      {"measurement": "Spike S1 induced T cell responses (Th1 and Th17 cells) in spleen", "setting": "[4]; greater effects on Th17 cells", "value": "down regulated"},
      {"measurement": "IL-6 positive B cells in spleen", "setting": "[4]; mouse, in vivo", "value": "decreased"},
      {"measurement": "IL-10 positive B cells in spleen", "setting": "[4]; mouse, in vivo", "value": "increased"},
      {"measurement": "Treg cells in spleen", "setting": "[4]; mouse, in vivo", "value": "practically no effect"}
    ]},
    {"molecule": "Cc1cc(C(N)=O)ccc1-n1c(CCC(=O)O)ccc1-c1ccc(-n2ccnc2)cc1", "note": "[N6022]", "values": [
      {"measurement": "GSNO reductase inhibition", "setting": "[5]", "value": "potent and reversible"},
      {"measurement": "vascular inflammation", "setting": "[3]", "value": "inhibit"},
      {"measurement": "vascular integrity", "setting": "[3]", "value": "protect"},
      {"measurement": "TH17 cells in the CNS of recipients", "setting": "[6]; [9]", "value": "decreased"},
      {"measurement": "blood IL-6 levels of recipients", "setting": "[6]; [9]", "value": "decreased"},
      {"measurement": "blood IL-10 levels of recipients", "setting": "[6]; [9]", "value": "increased"},
      {"measurement": "number of Treg cells in the CNS of recipients", "setting": "[6]; [9]", "value": "increased"},
      {"measurement": "blood cytokine levels and CNS Treg and TH17 cells of recipients", "setting": "[6]; [10]", "value": "no significant alterations"},
      {"measurement": "disease of recipient EAE mice", "setting": "[6]; [10]", "value": "no disease attenuation"}
    ]},
    {"molecule": "TCZ: IL6 receptor antibody that blocks IL-6 signaling", "values": [
      {"measurement": "patients in whom the optical lung lesion on CT scan resolved", "setting": "[7]; in vivo", "value": 90.5, "unit": "%"},
      {"measurement": "patients whose lymphocyte counts returned to normal", "setting": "[7]; in vivo", "value": 53, "unit": "%"},
      {"measurement": "patients with improved oxygenation", "setting": "[7]; in vivo", "value": 75, "unit": "%"},
      {"measurement": "reducing fever", "setting": "[7]; within a few days", "value": "effective"}
    ]},
    {"molecule": "CC(=O)N[C@@H](C(=O)O)C(C)(C)SN=O", "note": "(racemic) [SNAP, reference compound]", "values": [
      {"measurement": "viral protein and vRNA synthesis and replication of SARS-CoV-1", "setting": "[8]", "value": "inhibit"},
      {"measurement": "clot formation", "setting": "[2]", "value": "inhibited"},
      {"measurement": "clotting factor X111 (transglutaminase) activity", "setting": "[2]", "value": "inhibited"}
    ]}
  ]
}
